Experimental data taken from publication PMC3381009 (Journal of Medicinal Chemistry, 2012).

Legend:
[1] = molecular target: Mycobacterium tuberculosis glutamine synthetase (MtGS) (Mycobacterium tuberculosis, UniProt P9WN39); test: MtGS inhibition screening and IC50 determination; format: biochemical; conditions: for inhibitory activity in the MtGS enzymatic assay (in words): inhibition screening at 25 μM; for fold increase of affinity/potency (IC50) compared to 7a: MtGS IC50 ratio vs 7a
MtGS = conditions: read-out: IC50 obtained in the HTS study; HTS assay conditions; cited from earlier work

Sequence of Mycobacterium tuberculosis glutamine synthetase (MtGS) (P9WN39 whole entry): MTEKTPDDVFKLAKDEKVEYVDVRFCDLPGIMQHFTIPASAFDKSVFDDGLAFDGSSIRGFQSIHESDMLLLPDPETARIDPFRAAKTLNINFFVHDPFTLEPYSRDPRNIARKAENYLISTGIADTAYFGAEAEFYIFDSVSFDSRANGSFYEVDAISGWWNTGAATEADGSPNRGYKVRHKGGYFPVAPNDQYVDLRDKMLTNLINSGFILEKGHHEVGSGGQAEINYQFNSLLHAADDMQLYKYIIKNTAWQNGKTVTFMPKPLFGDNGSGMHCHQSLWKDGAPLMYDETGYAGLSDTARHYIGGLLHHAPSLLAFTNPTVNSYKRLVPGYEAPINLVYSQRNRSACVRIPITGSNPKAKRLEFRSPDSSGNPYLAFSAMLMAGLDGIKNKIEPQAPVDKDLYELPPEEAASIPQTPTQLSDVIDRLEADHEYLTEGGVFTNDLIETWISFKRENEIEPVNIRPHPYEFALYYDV

## COc1ccc2cc(-c3nc(C(C)(C)C)[nH]c3-c3ccncc3)ccc2c1 [Compound 7a]
[1]
  fold higher IC50 than the IC50 obtained in the HTS study: 30 fold
MtGS
  IC50: 100 nM

## COc1ccc2cc(-c3nc(C)[nH]c3-c3ccncc3)ccc2c1 [Compound 7f]
[1]
  inhibitory activity in the MtGS enzymatic assay (in words): inactive

## COc1ccc2cc(-c3nc[nH]c3-c3ccncc3)ccc2c1 [Compound 7g]
[1]
  inhibitory activity in the MtGS enzymatic assay (in words): inactive

## COc1ccc2cc(-c3nc(COCc4ccccc4)[nH]c3-c3ccncc3)ccc2c1 [Compound 7h]
[1]
  inhibitory activity in the MtGS enzymatic assay (in words): did not show any inhibitory activity

## COc1ccc2cc(-c3nc(CO)[nH]c3-c3ccncc3)ccc2c1 [Compound 7i]
[1]
  inhibitory activity in the MtGS enzymatic assay (in words): inactive

## COc1ccc2cc(-c3nc(C(C)(C)C)[nH]c3-c3ccnc(F)c3)ccc2c1 [Compound 10]
[1]
  fold increase of affinity/potency (IC50) compared to 7a: ~2.5 fold

## COc1ccc2cc(-c3nc(C(C)(C)C)[nH]c3-c3ccnc(N)c3)ccc2c1 [Compound 11a, 4-(2-tert-Butyl-4-(6-methoxynaphthalen-2-yl)-1H-imidazol-5-yl)pyridin-2-amine]
[1]
  fold increase of affinity/potency (IC50) compared to 7a: over 60 fold

## CNc1cc(-c2[nH]c(C(C)(C)C)nc2-c2ccc3cc(OC)ccc3c2)ccn1 [Compound 11b]
[1]
  fold loss in activity compared to 11a: 100 fold

## COc1ccc2cc(-c3nc(C(C)(C)C)[nH]c3-c3ccnc(N(C)C)c3)ccc2c1 [Compound 11c]
[1]
  inhibitory activity in the MtGS enzymatic assay (in words): inactive
